Measured values as given in US11013696B2, “Lipids and lipid compositions for the delivery of active agents” (Novartis AG, priority 2013, dated 2021).

Legend:
[1] = Percent encapsulation of mRNA in lipid nanoparticles (Quant-iT Ribogreen); type: physicochemical; details: Table 2; leptin mRNA in LNP with the cationic lipid
Summary of the method: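 LNPs made by T-junction mixing of ethanolic lipids (cationic lipid:DSPC:cholesterol:PEG lipid 40:10:38:2, N:P 4:1) with mRNA in citrate pH 5.8-6.0, then dialysed against PBS overnight at 4 °C. RiboGreen fluorescence (ex 480/em 520 nm) measured in TE ± 0.75% Triton X-100; encapsulation = (total − free)/total.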

human leptin [2] = experiment: Human leptin in mouse plasma (ELISA) after IV tail vein injection of encapsulated leptin mRNA; type: in vivo; details: hLeptin, 0.2 mpk, ob/ob
Experimental: Human leptin in mouse plasma was measured by ELISA. Antibodies purchased from the R&D Systems duoset (Cat #DY398E, part #840279 for capture antibody and part #840280 for detection antibody) were reconstituted using PBS and titered, again using PBS. The capture antibody was coated at 4 ug/ml in 30 ul/well on a white Nunc® Maxisorp 384 well plate (Cat #460372). After an overnight incubation at room temperature the capture antibody was aspirated and the plate blocked for 2 hours at room temperature with 90 ul/well of KPL milk blocker (Cat #50-82-00). Once the incubation was completed the plate was aspirated and recombinant standards and samples were added to the plate at 30 ul/well for 2 hours at 37° C. while shaking at 600 rpm. Sample/standard dilutions were made using casein sample diluent. Washing/aspiration 3 times with 100 ul/well followed, using Teknova plate wash solution (Cat #P1192). Next, detection antibody was diluted using casein detection antibody diluent to 12.5 ng/ml and added at 30 ul/well for 2 hours room temperature. After this incubation, the plate was washed again and a solution of poly-streptavidin-HRP (Cat #21140) at a 1:1250 dilution in HRP dilution buffer was added to each well (30 ul/well) and incubated for 30 minutes room temperature. A final wash/aspiration removed the HRP solution and a chemiluminescent substrate was added at 30 ul/well (Cat #1859678 & 1859679). The plate was quickly read using a SpectramaxM5 plate reader with a 50 ms integration time. The dynamic range of the ELISA is from 100-2,000 […] (6.25-125 pM) of human leptin. The assay is applicable to plasma from mice, rats and cynomolgus monkeys.
Before the tail vein injection, mouse body weights were recorded and diet weighted, with mice grouped according to their body weights. Mice were prepared by warming them under a heating lamp for ˜2 minutes, with the mice about 12 inches from heat lamp. […]
On day 0, animals were weighed and sorted according to average body weight. Mice were dosed, and food intake (FI) was recorded, on each of days 1-7 and days 9, 11, and 16.

human leptin [3] = experiment: Human leptin in mouse plasma (ELISA) after subcutaneous injection of encapsulated leptin mRNA; type: in vivo; details: hLeptin, 0.2 mpk, ob/ob
Factor VII = experiment: Mouse Factor VII dosing and plasma Factor VII activity assay (FVII siRNA LNP, IV); type: in vivo; details: 0.03 mpk, XXX mice
Experimental: Female CD-1 mice were received from Harlan Labs and maintained on standard lab chow and water ad libitum. The animals weighed approximately 25 gr at time of dosing. Formulated Factor VII siRNA was administered as a single dose intravenously via the lateral tail vein. Approximately 48 hours after injection, the mice were euthanized by CO2 inhalation followed by exsanguination through the vena cava.
Plasma collected from injected mice was assayed for Factor VII enzyme activity using the Biophen FVII kit from Hyphen Biomedical (catalog number 221304). An assay standard curve was prepared using pooled plasma aliquots from the vehicle control animals. All samples were diluted to fall within the linear range of the standard curve and Factor VII activity relative to control plasma was reported.
Lipid nanoparticles comprising lipid compounds of formula (I) and the FVII siRNA duplex sequence listed above were tested in the Factor VII Activity Assay. The results of this assay are given in Table 34 below as a percent knock down of plasma Factor VII enzyme activity at a dose of 0.3 mg/kg and 0.03 mg/kg.

SMILES: CCCCCCCCCCCCC(CCC(=O)OC(COC(=O)CCCCCCCCC)COC(=O)CCCCCCCCC)OC(=O)OCCCN(C)CC (stereo not shown) [Example 91, 2-((4-(((3-(ethyl(methyl)amino)propoxy)carbonyl)oxy)hexadecanoyl)oxy)propane-1,3-diyl bis(decanoate)]
- % encapsulation mRNA Leptin [1]: 94.4%
- Expression of protein following IV injection of encapsulated mRNA (human leptin [2]): 33.6 ng/mL
- Expression of protein following SC injection of encapsulated mRNA (human leptin [3]): 3.5 ng/mL
- FVII knock-down following IV injection of encapsulated siRNA (Factor VII): 97%/0.03
